Assay results: US7582616B2, “Nucleoside transport inhibitors” (Quesrema Enterprises LLC, priority 2003, dated 2009)
Marks after values point to notes of the source that are not given here. Each block holds one molecule with its values, some of them ahead of it.

How the values were obtained:
rat heart = experiment: Rat heart isolated model, recovery from global ischemia; assay type: in vivo; settings: for Percentage recovery relative to control levels: global ischemia; for Change in EDP / Recovery from 30 min Global Ischemia (LVDP): treatment during ischemia and reperfusion, mean SEM; for Change in EDP: end diastolic pressure; for Recovery from 30 min Global Ischemia (LVDP): left ventricular developed pressure
Description: In addition, treatment with compound 4 also appears to keep the heart more relaxed than treatment with either control or NBMPR, an added benefit not seen with the standard agent.

[1] = target: T1, es nucleoside transporter (Homo sapiens, UniProt Q99808); experiment: Flow cytometric es nucleoside transporter binding assay (displacement of 5-(SAENTA)-X8-fluorescein) in K562 cells; settings: for Ki: 25 nM 5-(SAENTA)-X8-fluorescein, 45 minutes, room temperature, read-out: Flow Cytometrically-Determined Ki Values; for Ki at the es transporter, in words: displacement of 5-(SAENTA)-X8-fluorescein
T1 construct: endogenous in cells; host or cells: K562 human chronic myelogenous leukemia cells (intact cells)
T1 sequence (Q99808 1-456): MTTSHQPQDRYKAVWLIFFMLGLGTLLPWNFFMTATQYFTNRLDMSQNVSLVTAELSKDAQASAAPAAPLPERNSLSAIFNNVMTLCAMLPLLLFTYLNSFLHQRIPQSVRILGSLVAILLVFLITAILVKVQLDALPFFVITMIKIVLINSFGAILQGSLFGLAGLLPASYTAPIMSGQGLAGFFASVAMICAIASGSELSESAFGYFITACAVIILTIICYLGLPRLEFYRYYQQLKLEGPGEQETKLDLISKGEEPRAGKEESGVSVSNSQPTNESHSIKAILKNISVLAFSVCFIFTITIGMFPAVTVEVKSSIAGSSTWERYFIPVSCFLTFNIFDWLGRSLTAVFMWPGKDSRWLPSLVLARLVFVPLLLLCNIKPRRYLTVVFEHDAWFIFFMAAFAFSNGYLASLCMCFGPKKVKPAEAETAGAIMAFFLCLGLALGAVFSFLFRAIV
Protocol: FIG. 1 is a graph showing the equilibrium displacement of SAENTA-fluorescein ligand by of new tetrahydroisoquinoline constrained NBMPR analogs in K562 cells. Cells are incubated with 25 nM SAENTA fluorescein in the presence of inhibitor for 45 minutes at room temperature and analyzed by flow cytometry.
Exemplary compounds are tested to determine their es nucleoside transporter binding ability by a flow cytometric assay (Buolamwini et al., 1994). Human leukemia K562 cells growing in RPMI 1640 medium are washed once and suspended at 1.6×10^6 cells/ml in phosphate-buffered saline at pH 7.4, and incubated with 5-(SAENTA)-X8-fluorescein (25 nM) in the presence or absence of varying concentrations of test compounds at room temperature for 45 minutes. Flow cytometric measurements for cell-associated fluorescence are then performed with a FACSCalibur (Becton Dickinson, San Jose, Calif.) equipped with a 15 mW-argon laser (Molecular Resources Flow Cytometry Facility, University of Tennessee Health Sciences Center). In each assay, 5,000 cells are analyzed from suspensions of 4×10^5 cells/ml. The units of fluorescence are arbitrary channel numbers. Percentage (%) of control (i.e. es transporter-specific fluorescence in the presence of SAENTA-fluor without test compounds) is calculated for each sample by the equation below.
[formula] • where SFs is the es transporter-specific fluorescence of test samples, and SFf is the es transporter-specific fluorescence of the SAENTA-fluor ligand standard.
The results are fed into the PRISM program (GraphPad, San Diego, Calif.) to derive concentration-dependent curves using nonlinear regression, as shown in FIG. 1. From these curves, the IC50 values are obtained that are used to compare abilities of the new compounds to displace the es transporter-specific ligand (5-(SAENTA)-X8-fluorescein (Buolamwini et al., 1994).
Examples of the present invention (2-5) are tested along with 6-(1,2,3,4-tetrahydroisoquinolinyl)purine riboside (23) as es transporter binding ligands by a facile competitive binding flow cytometric assay using the K562 chronic myelogenous leukemia cell line. The high-affinity es transporter fluorescent ligand, 5-(SAENTA)-X8-fluorescein is used as the competitive ligand to be displaced by the test compounds.

[2] = test system: nucleoside transporter (uridine uptake in JB6 cells); experiment: Inhibition of [3H]uridine uptake in JB6 cells; assay type: cell-based; settings: 1 μM [3H]uridine, 10-second uptake
Protocol: FIG. 2 is a graph showing inhibition of [^3H]uridine uptake by NBMPR (•) and a novel tetrahydroisoquinoline analogue compound 12 (◯) in JB6 cells. Cells in logarithmic phase of growth are incubated with 1 μM […] and 10-second uptake measurements were performed as described in Paterson et al. (1983). The data points are mean ±std for triplicate samples.
Cells in logarithmic phase of growth are incubated with 1 μM [^3H]uridine and 10-second uptake measurements are performed as described in Paterson et al. (1983).

es transporter = target: T2, es transporter (Homo sapiens, UniProt Q99808); settings: product of in vivo loss of the nitrobenzyl group of NBMPR; cited from earlier work
T2 sequence (Q99808 1-456): T1 sequence (Q99808 1-456)

- IC50 / binding to the es transporter (inhibition of SAENTA-fluor binding), in words, FIG. 1 [1]: low nanomolar range
- Ki [1]: 0.45 nM
- IC50 for inhibition of uridine uptake, FIG. 2 [2]: single digit nanomolar range
SMILES: O=[N+]([O-])c1ccc2c(c1)CN(c1ncnc3c1ncn3[C@@H]1O[C@H](CO)[C@@H](O)[C@H]1O)CC2 [Compound 4]
- Percentage recovery relative to control levels (rat heart): triples
- Change in EDP (rat heart): 52.5 ± 6.6%^f
- Recovery from 30 min Global Ischemia (LVDP) (rat heart): 33.60 ± 9.8% (n = 4)^e

- IC50 / binding to the es transporter (inhibition of SAENTA-fluor binding), in words, FIG. 1 [1]: much less potent inhibitors
- Ki [1]: 300 nM
- Ki at the es transporter, in words [1]: high nanomolar concentrations
SMILES: O=[N+]([O-])c1cccc2c1CN(c1ncnc3c1ncn3[C@@H]1O[C@H](CO)[C@@H](O)[C@H]1O)CC2 [Compound 5]

- Ki [1]: 150 nM
SMILES: OC[C@H]1O[C@@H](n2cnc3c(N4CCc5ccccc5C4)ncnc32)[C@H](O)[C@@H]1O [Compound 23, 6-(1,2,3,4-tetrahydroisoquinolinyl)purine riboside]

The next lines start with the molecule.

SMILES: O=[N+]([O-])c1ccc(CSc2ncnc3c2ncn3[C@@H]2O[C@H](CO)[C@@H](O)[C@H]2O)cc1 [Compound 1, nitrobenzylthioinosine, reference compound]
- Percentage recovery relative to control levels (rat heart): doubles
- Change in EDP (rat heart): 65.2 ± 3.2%
- Recovery from 30 min Global Ischemia (LVDP) (rat heart): 24.40 ± 3.6% (n = 5)^d

SMILES: O=[N+]([O-])c1cccc2c1CCN(c1ncnc3c1ncn3[C@@H]1O[C@H](CO)[C@@H](O)[C@H]1O)C2 [Compound 2]
- IC50 / binding to the es transporter (inhibition of SAENTA-fluor binding), in words, FIG. 1 [1]: much less potent inhibitors
- Ki [1]: 250 nM
- Ki at the es transporter, in words [1]: high nanomolar concentrations

SMILES: O=[N+]([O-])c1ccc2c(c1)CCN(c1ncnc3c1ncn3[C@@H]1O[C@H](CO)[C@@H](O)[C@H]1O)C2 [Compound 3]
- IC50 / binding to the es transporter (inhibition of SAENTA-fluor binding), in words, FIG. 1 [1]: bound as tightly as the prototype compound, NBMPR
- Ki [1]: 15 nM
- melting point: 148 to 149 °C

SMILES: OC[C@H]1O[C@@H](n2cnc3c(=S)nc[nH]c32)[C@H](O)[C@@H]1O [mercaptopurine riboside]
- Decrease in es transporter affinity compared with NBMPR (es transporter): ≤ 1000 fold
